{"source": "patent US20240358862A1", "about": "“Synthesis Method and Application of a Near-infrared Probe GGa-ICG specific binding to PSCA” (Guangzhou Shiyun Biotechnology Co., Ltd, priority 2022, published 2024)", "key": {"[1]": {"test_system": "prostate cancer cell lines", "experiment": "Cell binding by fluorescence microscope / flow cytometry", "format": "cell-based, human", "settings": "200 nM probe", "experimental": "Therefore, 200 nM of GGa-ICG and ssDNA-ICG were used to confirm their specific binding. The method is as follows: • a. The human prostate cancer cell lines PC-3, DU145, LNCaP, 22RV1, immortalized normal human prostate epithelial cell line RWPE1, and human cervical cancer cell line Hela, as well as MCF7 cells obtained from the American Type Culture Collection (ATCC), were used in this study. All cell lines were cultured at 37° C. and 5% CO2 in a humidified environment. […]\nAfter the cells reach a confluency of over 80%, they were passaged and grown for 24-48 hours until they reached a confluency of over 50%. They were then washed once with PBS (without Ca and Mg ions), twice with cold washing buffer, and incubated at room temperature (4° C. for the internalization inhibition group) for 30 minutes with the sample buffer containing near-infrared fluorescence probes GGa-ICG, ssDNA-ICG, and ICG to a final concentration of 200 nM (or as specified). The cells were observed under a fluorescence microscope or analyzed by flow cytometry after digestion with trypsin without EDTA. […]"}, "PSCA": {"molecular_target": "T1, PSCA (Homo sapiens, UniProt O43653)", "T1 sequence (O43653 12-83)": "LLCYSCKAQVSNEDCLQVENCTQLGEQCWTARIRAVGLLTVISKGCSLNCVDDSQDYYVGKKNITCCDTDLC", "experiment": "In vivo blocking of GGa-ICG by PSCA antibodies", "parameters": "endogenous in cells; species or system nude mice", "settings": "1 mg PSCA antibody pre-injected, GGa-ICG 12 hours later", "experimental": "1 mg of PSCA antibody was pre-injected into nude mice, followed by injection of GGa-ICG 12 hours later, and live imaging was performed to observe the phenomenon of GGa-ICG binding."}, "[2]": {"experiment": "Fluorescence depth detection (tissue penetration depth)", "format": "physicochemical", "settings": "excited at 780 nm, signals detected after 5 minutes", "experimental": "The tissue penetration depth of ICG, GGa-ICG, and ssDNA-ICG was detected using a fluorescence spectrometer at depths of 1, 2, 3, 4, and 5 mm. Fluorescence was excited at a wavelength of 780 nm and fluorescence signals were detected after 5 minutes to compare signal-to-noise ratios and observe the fluorescence signal penetration depth."}, "cells": {"test_system": "cells", "experiment": "MTT experiment (in vitro cell toxicity)", "format": "cell-based", "settings": "2-20 times the Kd value concentration", "experimental": "MTT assay was used to measure the in vitro cell toxicity in a 96-well plate. In brief, cells (6×10^3 cells per well) were treated with GGa-ICG (at concentrations of 0, 20, 200 nM, 10 μM, etc.), free drugs, or hybrids in the culture medium (RPMI1640 without FBS, unless otherwise specified; 37° C.; 5% CO2). […]"}, "[3]": {"test_system": "prostate cancer lesions (PC-3 xenograft)", "experiment": "In vivo imaging in PC-3 mouse xenograft model", "parameters": "species or system BALB/c nude mice", "experimental": "Male BALB/c nude mice (BALB/c-nude) were purchased from Beijing SLAC Laboratory Animal Co., Ltd. Five-week-old nude mice were subcutaneously injected with 5×10^6 PC-3 cells on the back. The tumor was allowed to grow for 15 to 20 days until it reached a diameter of 0.5-1.5 cm. The BALB/c nude mice bearing tumors were anesthetized with sedatives and anesthetics. Once the mice were immobilized, a designated dose (0.1 mg, 0.5 mg, 1 mg, 2 mg per injection) of GGa-ICG or ssDNA-ICG was injected through the tail vein. At certain time points, fluorescent images of live mice were collected using the IVIS Lumina II in vivo imaging system. For ex vivo fluorescent experiments, tumor-bearing mice that were intravenously injected with GGa-ICG or ssDNA-ICG were euthanized by cervical dislocation 1 hour after injection under anesthesia. After dissection, organs including brain, liver, kidney, spleen, lung, heart, and tumor tissue were imaged using the IVIS Lumina II in vivo imaging system as described above."}, "[4]": {"settings": "doses of 0.1-2 mg/animal, tail vein"}}, "data": [{"substance": "GGa-ICG: near-infrared probe: PSCA-binding nucleic acid aptamer GGa linked at 3′ to an ICG derivative dye (DNA TGCCACTACAGCTGGTTCGGTTTGGTGACTTCGTTCTTCGTTGTGGT; 3'-ICG dye, further chemistry not given here)", "values": [{"measurement": "binding affinity of PC3, VCap and LNCap cell lines relative to DU-145, 22RV1 cells", "setting": "[1]", "value": "stronger"}, {"measurement": "specific binding to prostate cancer cell lines", "setting": "[1]", "value": "could specifically bind"}, {"measurement": "blocking of tumor visualization by PSCA antibody", "setting": "PSCA", "value": "Completely Blocked"}, {"measurement": "penetration depth", "setting": "[2]", "value": "~6", "unit": "mm"}, {"measurement": "cell inhibition in MTT experiment", "setting": "cells", "value": "no significant cell inhibition"}, {"measurement": "time of optimal detection after injection", "setting": "[3]; [4]", "value": "8 to 12", "unit": "h"}, {"measurement": "time until which detection lasted", "setting": "[3]; [4]", "value": "24 to 48", "unit": "h"}, {"measurement": "binding to prostate cancer lesions in vivo", "setting": "[3]; intravenous injection, at 2, 4, and 8 hours", "value": "specifically bound"}, {"measurement": "metabolism pathway", "setting": "[3]; mouse, in vivo", "value": "partially metabolized via the liver and kidney pathways"}, {"measurement": "time within which probe in the organs was essentially metabolized", "setting": "[3]; organs of tumor-bearing mice", "value": "≤ 24", "unit": "h"}]}]}
